For data set [1], the system named is Cryptococcus neoformans. Kind of data set: Antifungal activity against Cryptococcus neoformans H99 assessed as reduction in fungal growth. It counts as functional.
The subject of data set [2] is [Candida] auris. Put plainly: Antifungal activity against Candida auris 0029 assessed as reduction in fungal growth. It counts as functional. The note with it: Candidozyma auris.
In data set [3] the test system is [Candida] auris. Put plainly: Antifungal activity against Candida auris ATCC 15448 assessed as reduction in fungal growth. The following applies: Candidozyma auris. Type of data set: functional.
In data set [4] the test system is Candida albicans. Put plainly: Synergistic antifungal activity against Candida albicans assessed as inhibition of fungal growth incubated in presence of fluconazole. Type of data set: functional, organism-based.
For data set [5], the system named is [Candida] auris. Put plainly: Synergistic antifungal activity against Candida auris 0029 assessed as inhibition of fungal growth incubated in presence of fluconazole. Type of data set: functional, organism-based. The note with it: Candidozyma auris.
Data set [6] in a line: Solubility of compound in MeOH/H2O at pH 7 by HPLC analysis. Type of data set: physicochemical.
The nature of data set [7]: Cytotoxicity against HUVEC cells. Type of data set: toxicity, cell-based. The following applies: human.
A short description of data set [8]: Hemolytic activity in rabbit erythrocytes assessed as hemolysis at 10 to 100 uM relative to control. It counts as toxicity, cell-based, Oryctolagus cuniculus, Erythrocyte. The following applies: dose 10-100 µM, read-out: Activity.
The test system of data set [9] is Cryptococcus neoformans. Kind of data set: Antifungal activity against Cryptococcus neoformans H99 assessed as inhibition of cell growth at 4 microg/ml measured for 72 hrs. It counts as functional, organism-based. The note with it: dose 4.0 µg/ml.
Data set [10] deals with [Candida] auris. Put plainly: Antifungal activity against Candida auris 0029 assessed as inhibition of cell growth at 16 microg/ml measured for 72 hrs. The following applies: Candidozyma auris. It counts as functional.
Data set [11] concerns Cryptococcus neoformans. Kind of data set: Fungicidal activity against Cryptococcus neoformans H99. It counts as functional.
Data set [12] deals with [Candida] auris. Kind of data set: Fungicidal activity against Candida auris 0029. Type of data set: functional. The following applies: Candidozyma auris.
Data set [13] deals with Cryptococcus neoformans. Put plainly: Antibiofilm activity against Cryptococcus neoformans H99 assessed as inhibition of biofilm formation upto […] microg/ml incubated for 24 hrs by XTT reduction assay. Type of data set: functional, organism-based. The following applies: dose <= 64.0 µg/ml.
The test system of data set [14] is [Candida] auris. Put plainly: Antibiofilm activity against Candida auris 0029 assessed as inhibition of biofilm formation upto […] microg/ml incubated for 24 hrs by XTT reduction assay. The following applies: Candidozyma auris, dose <= 64.0 µg/ml. Type of data set: functional, organism-based.
In data set [15] the test system is Cryptococcus neoformans. Kind of data set: Antibiofilm activity against Cryptococcus neoformans H99 assessed as inhibition of biofilm formation at 1 microg/ml incubated for 24 hrs by XTT reduction assay. Type of data set: functional, organism-based. The note with it: dose 1.0 µg/ml.
For data set [16], the system named is [Candida] auris. Kind of data set: Antibiofilm activity against Candida auris 0029 assessed as inhibition of biofilm formation at 64 microg/ml incubated for 24 hrs by XTT reduction assay. Type of data set: functional. The note with it: Candidozyma auris. For orientation: Tetrazolium dyes change colour on reduction, which living cells bring about.
The test system of data set [17] is Cryptococcus neoformans. Put plainly: Antibiofilm activity against Cryptococcus neoformans H99 assessed as inhibition of capsule formation at 1 microg/ml incubated for 48 hrs by laser confocal microscopic analysis. The following applies: dose 1.0 µg/ml. Type of data set: functional, organism-based.
The nature of data set [18]: Inhibition of Cryptococcus neoformans H99 JMJD3 by absorbance based analysis.
Data set [19] can be described thus: Inhibition of Candida auris 0029 JMJD3 by absorbance based analysis. Details: species or system Candidozyma auris.
Data set [20] is described as follows: Metabolic stability in mouse liver microsome assessed as half life. It counts as ADME. The following applies: liver microsomes. Background: Microsomes from liver hold many membrane-bound enzymes, among them those of drug oxidation.
The nature of data set [21]: Metabolic stability in mouse liver microsome assessed as clearance. It counts as ADME. The note with it: liver microsomes, read-out: CLH.
Data set [22] has as its system Cryptococcus neoformans. Put plainly: Antifungal activity against Cryptococcus neoformans H99 assessed as reduction in fungal growth incubated for 72 hrs in presence of 1 uM Fe2+. It counts as functional.
The subject of data set [23] is Cryptococcus neoformans. Put plainly: Antifungal activity against Cryptococcus neoformans H99 assessed as reduction in fungal growth incubated for 72 hrs in presence of 5 uM Fe2+. Type of data set: functional.
Data set [24] concerns Cryptococcus neoformans. Kind of data set: Antifungal activity against Cryptococcus neoformans H99 assessed as reduction in fungal growth incubated for 72 hrs in presence of 10 uM Fe2+. Type of data set: functional.
The subject of data set [25] is Cryptococcus neoformans. Kind of data set: Antifungal activity against Cryptococcus neoformans H99 assessed as reduction in fungal growth incubated for 72 hrs in presence of 20 uM Fe2+. Type of data set: functional.
The subject of data set [26] is Cryptococcus neoformans. Kind of data set: Antifungal activity against Cryptococcus neoformans H99 assessed as reduction in fungal growth incubated for 72 hrs in presence of 40 uM Fe2+. Type of data set: functional.
For data set [27], the system named is Cryptococcus neoformans. Put plainly: Antifungal activity against Cryptococcus neoformans H99 assessed as reduction in fungal growth incubated for 72 hrs in presence of 80 uM Fe2+. Type of data set: functional.

Values after ≈ are worked out from the molar mass of the structure shown. Active and inactive are the calls of the source. No cut-off for these calls is given here.

Usually MIC80 stands for an inhibitory concentration at the 80% level, which refers to growth in some studies and to a panel of isolates in others. For orientation: solubility means how much of the substance goes into solution per volume. Lower therefore signals little dissolved substance. In general, IC50 refers to the concentration at which inhibition is half-maximal. High values mean a need for much substance, low ones inhibition by little substance. As a reminder, the inhibition is how much of the control response was suppressed. In general, MFC refers to the lowest tested concentration that kills the fungus rather than only halting it. Low readings indicate more potent killing, high ones less potent killing. As a reminder, the half-life is how long it takes for the measured level to halve. For orientation: MIC means the least concentration at which growth counts as inhibited.

Turning to `COc1ccc(N/N=C(\c2ccccc2)c2ccccn2)nc1`, the MIC80 in data set [1] came to 0.5 mg/L (≈ 1.64 µM); in data set [2], 2 mg/L (≈ 6.57 µM); in data set [3] it was 0.125 mg/L (≈ 0.411 µM).

As to `FC(F)(F)c1ccc(NN=C(c2ccccn2)c2ccccn2)cc1`, the MIC80 in data set [1] was 16 mg/L (≈ 46.7 µM); in data set [2] it was over 64 mg/L; in [3], over 64 mg/L.

As to `Cc1ccnc(-n2c(=O)n(-c3ccccn3)c3ccccc32)c1`, the results for the MIC80 in [1], in data set [2] and in data set [3] were 64 mg/L (≈ 212 µM), over 64 mg/L and over 64 mg/L, respectively.

Consider `Fc1ccc(N/N=C(/c2ccccc2)c2ccccn2)cc1`, for which the results for the MIC80 in data set [1], in data set [2] and in [3] were 32 mg/L (≈ 110 µM), 64 mg/L (≈ 220 µM) and 32 mg/L (≈ 110 µM), respectively.

`FC(F)(F)c1ccc(N/N=C(\c2ccccc2)c2ccccn2)cc1`: the results for the MIC80 in [1], in [2] and in [3] were 32 mg/L (≈ 93.7 µM), over 64 mg/L and over 64 mg/L, respectively.

Consider `Clc1ccc(N/N=C(\c2ccccc2)c2ccccn2)nc1`, for which the outcome in [4], in [5] and in data set [15] was inactive. In addition, the concentration in solution in [6] (solubility) was 0.54 µg/mL (≈ 1.75 µM). The MIC80 came out at 0.5 mg/L (≈ 1.62 µM) in data set [1], 2 mg/L (≈ 6.48 µM) in data set [2] and 0.125 mg/L (≈ 0.405 µM) in [3]. Further, the IC50 in [7] worked out at 0.079 µM; in [18], 0.168 µM; in data set [19] it was 0.005 µM. Moreover, the hemolysis at 100 µM in data set [8] was under 3%. Moreover, the result in data set [9], in data set [13], in data set [14] and in data set [17] was Active. In addition, the inhibition at 16 µg/mL in [10] is 100%. For the same compound, the MFC in data set [11] is 16 mg/L (≈ 51.8 µM); in data set [12], 256 mg/L (≈ 829 µM). Besides, in data set [16], the inhibition at 64 µg/mL was found to be 100%. Also, the half-life in [20] amounted to 34.3 min. In addition, the CLint scaled in [21] is 9.54 L/h/kg. Besides, the MIC amounted to 1 mg/L in data set [22]; 4 mg/L in data set [23]; 8 mg/L in data set [24]; 8 mg/L in [25]; 64 mg/L in data set [26]; 64 mg/L in data set [27].

In the case of `S=c1n(-c2ccccn2)c2ccccc2n1-c1ccc(Cl)cn1`, the values for the MIC80 in [1], in data set [2] and in data set [3] were 64 mg/L (≈ 189 µM), over 64 mg/L and over 64 mg/L, respectively.

On to `Clc1ccc(N/N=C(\c2ccccc2)c2ccccn2)cc1`, for which the MIC80 in [1] is 32 mg/L (≈ 104 µM); in data set [2], over 64 mg/L; in data set [3], over 64 mg/L.

On to `O=c1c2ccccc2c(-c2ccccn2)nn1-c1ccc(Cl)cn1`, for which the MIC80 in data set [1] is 64 mg/L (≈ 191 µM); in data set [2], over 64 mg/L; in data set [3], over 64 mg/L.

As to `Clc1ccc(N/N=C(/c2ccc(Cl)cc2)c2ccccn2)cc1`, the MIC80 in data set [1] turned out to be 32 mg/L (≈ 93.5 µM); in data set [2] it was 64 mg/L (≈ 187 µM); in data set [3] it was 64 mg/L (≈ 187 µM).
